Results as given in the NIST ThermoML archive (doi:10.1021/acs.jced.5b00654).
Several values for one entry are separate records, joined by “and”; a condition that tells them apart may be missing. Identical values can stand only once. ± gives the expanded uncertainty stated by the source.

Conditions: Fluid (supercritical or subcritical phases); for mass density: Buoyancy - hydrostatic balance with magnetic suspension - one sinker; for viscosity: Vibrating wire viscometry

CCCC [butane]
Conditions	mass density [kg/m3]	viscosity
428.2 K, 3793.8 kPa	137.58 ± 2.4	0.01557 ± 0.00091 mPa·s
428.2 K, 4030 kPa	274.89 ± 3.2	0.02934 ± 0.001 mPa·s
428.2 K, 4030.1 kPa	274.9 ± 3.2	0.02934 ± 0.001 mPa·s
428.2 K, 22973 kPa	480.02 ± 0.54	0.08495 ± 0.0014 mPa·s
428.21 K, 1539.8 kPa	29.634 ± 0.069	0.01094 ± 0.00086 mPa·s
428.21 K, 1540.1 kPa	29.642 ± 0.069	0.01093 ± 0.00086 mPa·s
428.21 K, 22974 kPa	480.02 ± 0.54	0.08503 ± 0.0014 mPa·s and 0.08492 ± 0.0014 mPa·s
428.22 K, 3107.8 kPa	80.455 ± 0.26	0.01252 ± 0.00087 mPa·s
428.23 K, 3108.6 kPa	80.486 ± 0.26	0.01253 ± 0.00087 mPa·s
428.34 K, 3805.1 kPa	138.83 ± 29	0.01567 ± 0.0033 mPa·s
428.39 K, 3806.5 kPa	138.8 ± 0.82	0.01569 ± 0.0009 mPa·s
448.09 K, 4846.2 kPa	174.16 ± 1.2	0.01886 ± 0.00093 mPa·s
448.11 K, 5054.5 kPa	201.47 ± 1.2	0.02122 ± 0.00095 mPa·s
448.11 K, 5054.8 kPa	201.47 ± 1.2	0.02124 ± 0.00095 mPa·s
448.11 K, 6144.8 kPa	304.18 ± 0.71	0.0341 ± 0.001 mPa·s
448.11 K, 6145 kPa	304.17 ± 0.71	0.0341 ± 0.001 mPa·s
448.13 K, 4161.6 kPa	114.81 ± 0.93	0.01481 ± 0.00089 mPa·s and 0.01479 ± 0.00089 mPa·s
448.13 K, 4847 kPa	174.1 ± 1.2	0.01885 ± 0.00093 mPa·s
448.13 K, 5203.2 kPa	222.02 ± 1.2	0.02331 ± 0.00096 mPa·s
448.13 K, 5203.5 kPa	222.03 ± 1.2	0.02333 ± 0.00096 mPa·s
448.13 K, 7189.8 kPa	340.36 ± 0.53	0.04055 ± 0.0011 mPa·s
448.14 K, 7191 kPa	340.37 ± 0.53	0.04061 ± 0.0011 mPa·s
448.14 K, 18184 kPa	440.74 ± 0.51	0.06811 ± 0.0013 mPa·s
448.14 K, 18187 kPa	440.74 ± 0.51	0.06813 ± 0.0013 mPa·s
448.14 K, 29460 kPa	478.91 ± 0.54	0.08497 ± 0.0014 mPa·s
448.15 K, 220.17 kPa	3.4915 ± 0.018	0.01102 ± 0.00086 mPa·s
448.15 K, 618.43 kPa	10.135 ± 0.029	0.0111 ± 0.00086 mPa·s
448.15 K, 618.6 kPa	10.141 ± 0.029	0.01109 ± 0.00086 mPa·s
448.15 K, 807.6 kPa	13.453 ± 0.035	0.01114 ± 0.00086 mPa·s
448.15 K, 1661.9 kPa	30.078 ± 0.068	0.01146 ± 0.00086 mPa·s
448.15 K, 3073.3 kPa	66.943 ± 0.17	0.01257 ± 0.00087 mPa·s
448.15 K, 5551.9 kPa	263.05 ± 0.92	0.02811 ± 0.001 mPa·s
448.15 K, 5553.7 kPa	263.02 ± 0.92	0.02811 ± 0.001 mPa·s
448.15 K, 11528 kPa	400.23 ± 0.48	0.05478 ± 0.0012 mPa·s
448.15 K, 11529 kPa	400.23 ± 0.48	0.05477 ± 0.0012 mPa·s
448.15 K, 14319 kPa	420.46 ± 0.5	0.06101 ± 0.0012 mPa·s
448.15 K, 29472 kPa	478.91 ± 0.54	0.08489 ± 0.0014 mPa·s
448.16 K, 220.38 kPa	3.4965 ± 0.018	0.01101 ± 0.00086 mPa·s
448.16 K, 430.17 kPa	6.9362 ± 0.024	0.01106 ± 0.00086 mPa·s
448.16 K, 431.02 kPa	6.95 ± 0.024	0.01106 ± 0.00086 mPa·s
448.16 K, 508.5 kPa	8.2591 ± 0.026	0.01107 ± 0.00086 mPa·s
448.16 K, 509.69 kPa	8.28 ± 0.026	0.01107 ± 0.00086 mPa·s
448.16 K, 807.76 kPa	13.456 ± 0.035	0.01115 ± 0.00086 mPa·s
448.16 K, 1662.2 kPa	30.086 ± 0.068	0.01146 ± 0.00086 mPa·s
448.16 K, 2073.7 kPa	39.305 ± 0.09	0.01169 ± 0.00086 mPa·s
448.16 K, 2511.8 kPa	50.321 ± 0.12	0.01201 ± 0.00087 mPa·s
448.16 K, 2512.1 kPa	50.329 ± 0.12	0.012 ± 0.00087 mPa·s
448.16 K, 3073.3 kPa	66.941 ± 0.17	0.01257 ± 0.00087 mPa·s
448.16 K, 6551.1 kPa	321.12 ± 0.62	0.03695 ± 0.0011 mPa·s
448.16 K, 6551.4 kPa	321.12 ± 0.62	0.03694 ± 0.0011 mPa·s
448.16 K, 8139.4 kPa	359.98 ± 0.51	0.04474 ± 0.0011 mPa·s
448.16 K, 8140.6 kPa	359.99 ± 0.51	0.04466 ± 0.0011 mPa·s
448.16 K, 23152 kPa	460.08 ± 0.52	0.07601 ± 0.0014 mPa·s
448.17 K, 1158.4 kPa	19.932 ± 0.048	0.01125 ± 0.00086 mPa·s
448.17 K, 2073 kPa	39.287 ± 0.09	0.01169 ± 0.00086 mPa·s
448.17 K, 4498.3 kPa	138.72 ± 1	0.01627 ± 0.00091 mPa·s
448.17 K, 5346.6 kPa	240.34 ± 1.2	0.02533 ± 0.00098 mPa·s
448.17 K, 9537.4 kPa	380.12 ± 0.49	0.04948 ± 0.0012 mPa·s
448.17 K, 9538.6 kPa	380.13 ± 0.49	0.0494 ± 0.0012 mPa·s
448.17 K, 14321 kPa	420.46 ± 0.5	0.06093 ± 0.0012 mPa·s
448.17 K, 23154 kPa	460.09 ± 0.52	0.07593 ± 0.0014 mPa·s
448.18 K, 3433.7 kPa	79.735 ± 0.23	0.01307 ± 0.00088 mPa·s
448.18 K, 3433.9 kPa	79.739 ± 0.23	0.01308 ± 0.00088 mPa·s
448.18 K, 3747.8 kPa	92.905 ± 0.34	0.01367 ± 0.00088 mPa·s
448.18 K, 4498.1 kPa	138.68 ± 1	0.01625 ± 0.00091 mPa·s
448.18 K, 5346.7 kPa	240.34 ± 1.2	0.02534 ± 0.00098 mPa·s
448.19 K, 3747.9 kPa	92.91 ± 0.34	0.01367 ± 0.00088 mPa·s
448.23 K, 4727 kPa	160.07 ± 1.1	0.01777 ± 0.00092 mPa·s
448.23 K, 4727.1 kPa	160.07 ± 1.1	0.01776 ± 0.00092 mPa·s
448.27 K, 5784.6 kPa	281.65 ± 0.8	0.03063 ± 0.001 mPa·s
448.28 K, 5785.1 kPa	281.66 ± 0.8	0.03066 ± 0.001 mPa·s
